The target of this assay is T1, BAK (Homo sapiens, UniProt Q16611).
T1 construct: gene BAK1; BAKΔTM (lacking its transmembrane domain) for MST; BAK 15–186 for NMR
T1 sequence (Q16611 15-186): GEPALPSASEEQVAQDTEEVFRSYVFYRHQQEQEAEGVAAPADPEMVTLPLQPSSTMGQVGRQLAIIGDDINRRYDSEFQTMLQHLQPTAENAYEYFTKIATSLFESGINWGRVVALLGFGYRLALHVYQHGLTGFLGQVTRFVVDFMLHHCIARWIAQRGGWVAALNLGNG
In words: microscale thermophoresis; 1H, […]-HSQC NMR titration; BAK oligomerization and liposome release as support. The class given is binding. A general note: Microscale thermophoresis detects binding through changes in fluorescence in a small temperature gradient.

As a reminder, the Kd is the equilibrium constant for the complex coming apart. A high value points to weaker binding. Consider `CC1=NN(c2ccc(C)c(C)c2)C(=O)/C1=N\Nc1cccc(-c2cccc(C(=O)O)c2)c1O` [Eltrombopag], for which the Kd came to 1.2 ± 0.7 µM.

(Values after paper PMC10314921, “Eltrombopag directly activates BAK and induces apoptosis” (Cell Death & Disease, 2023).)
